Measured values published in the CheMixHub ionic liquid set.
± gives the uncertainty stated by the source.

Test: xn = mol fraction of the nth substance listed

CCCC[n+]1ccn(C)c1.F[B-](F)(F)F + O
electrical conductivity (308.15 K, 100 kPa, x1 = 7.98e-05): 0.0658 ± 0.0011 S/m | viscosity (308.15 K, 100 kPa, x1 = 0.0003603): 0.751 ± 0.06 mPa·s | viscosity (308.15 K, 100 kPa, x1 = 0.0003729): 0.751 ± 0.061 mPa·s | viscosity (308.15 K, 100 kPa, x1 = 0.0007203): 0.789 ± 0.06 mPa·s | viscosity (308.15 K, 100 kPa, x1 = 0.0007257): 0.789 ± 0.061 mPa·s | viscosity (308.15 K, 100 kPa, x1 = 0.00108): 0.83 ± 0.061 mPa·s | viscosity (308.15 K, 100 kPa, x1 = 0.0011): 0.83 ± 0.061 mPa·s | viscosity (308.15 K, 100.3 kPa, x1 = 0.0005439): 0.7296 ± 0.0089 mPa·s | viscosity (308.15 K, 100.3 kPa, x1 = 0.0009901): 0.7358 ± 0.009 mPa·s | viscosity (308.15 K, 100.3 kPa, x1 = 0.00501): 0.7841 ± 0.0092 mPa·s | viscosity (308.15 K, 100.3 kPa, x1 = 0.006973): 0.8048 ± 0.0093 mPa·s | viscosity (308.15 K, 100.3 kPa, x1 = 0.009052): 0.835 ± 0.0094 mPa·s | viscosity (308.15 K, 100.3 kPa, x1 = 0.01199): 0.8681 ± 0.0096 mPa·s | viscosity (308.15 K, 100.3 kPa, x1 = 0.01499): 0.9047 ± 0.0098 mPa·s | viscosity (308.15 K, 100.3 kPa, x1 = 0.017): 0.9282 ± 0.0099 mPa·s | viscosity (308.15 K, 101 kPa, x2 = 0.1002): 38.1 ± 5 mPa·s | viscosity (308.15 K, 101 kPa, x2 = 0.209): 28.4 ± 3.8 mPa·s | electrical conductivity (308.15 K, 101 kPa, x2 = 0.7002): 4.24 ± 0.25 S/m | electrical conductivity (308.2 K, 101 kPa, frequency 6e-05 MHz, x2 = 0.2): 1.3 ± 0.013 S/m | electrical conductivity (308.2 K, 101 kPa, frequency 6e-05 MHz, x2 = 0.4): 2.04 ± 0.02 S/m | electrical conductivity (308.2 K, 101 kPa, frequency 6e-05 MHz, x2 = 0.6): 3.28 ± 0.033 S/m | electrical conductivity (308.2 K, 101 kPa, frequency 6e-05 MHz, x2 = 0.8): 5.28 ± 0.053 S/m | viscosity (313 K, 100 kPa, x1 = 0.6023): 13.87 ± 0.3 mPa·s | viscosity (313.15 K, 100 kPa, x1 = 0.0003603): 0.693 ± 0.06 mPa·s | viscosity (313.15 K, 100 kPa, x1 = 0.0003729): 0.693 ± 0.061 mPa·s | viscosity (313.15 K, 100 kPa, x1 = 0.0007203): 0.736 ± 0.06 mPa·s | viscosity (313.15 K, 100 kPa, x1 = 0.0007257): 0.736 ± 0.061 mPa·s | viscosity (313.15 K, 100 kPa, x1 = 0.00108): 0.779 ± 0.061 mPa·s | viscosity (313.15 K, 100 kPa, x1 = 0.0011): 0.779 ± 0.061 mPa·s | viscosity (313.15 K, 100.3 kPa, x1 = 0.0005439): 0.6614 ± 0.0086 mPa·s | viscosity (313.15 K, 100.3 kPa, x1 = 0.0009901): 0.6672 ± 0.0087 mPa·s | viscosity (313.15 K, 100.3 kPa, x1 = 0.00501): 0.7105 ± 0.0089 mPa·s | viscosity (313.15 K, 100.3 kPa, x1 = 0.006973): 0.7302 ± 0.0089 mPa·s | viscosity (313.15 K, 100.3 kPa, x1 = 0.009052): 0.7571 ± 0.0091 mPa·s | viscosity (313.15 K, 100.3 kPa, x1 = 0.01199): 0.7861 ± 0.0092 mPa·s | viscosity (313.15 K, 100.3 kPa, x1 = 0.01499): 0.8177 ± 0.0094 mPa·s | viscosity (313.15 K, 100.3 kPa, x1 = 0.017): 0.8403 ± 0.0095 mPa·s | viscosity (313.15 K, 101 kPa, x2 = 0): 46.5 ± 6 mPa·s | electrical conductivity (313.15 K, 101 kPa, x2 = 0.1014): 0.991 ± 0.059 S/m | viscosity (313.15 K, 101 kPa, x2 = 0.1135): 35.01 ± 0.84 mPa·s | viscosity (313.15 K, 101 kPa, x2 = 0.5014): 9 ± 1.4 mPa·s | viscosity (313.15 K, 101 kPa, x2 = 0.6004): 7.4 ± 1.2 mPa·s | electrical conductivity (313.15 K, 101 kPa, x2 = 0.8493): 6.99 ± 0.42 S/m | electrical conductivity (313.15 K, 101 kPa, x2 = 0.9744): 5.57 ± 0.34 S/m | electrical conductivity (313.2 K, 101 kPa, frequency 6e-05 MHz, x2 = 0.2): 1.45 ± 0.015 S/m | electrical conductivity (313.2 K, 101 kPa, frequency 6e-05 MHz, x2 = 0.4): 2.27 ± 0.023 S/m | electrical conductivity (313.2 K, 101 kPa, frequency 6e-05 MHz, x2 = 0.6): 3.69 ± 0.037 S/m | electrical conductivity (313.2 K, 101 kPa, frequency 6e-05 MHz, x2 = 0.8): 5.9 ± 0.059 S/m | viscosity (318.15 K, 100 kPa, x1 = 0.0003603): 0.638 ± 0.06 mPa·s | viscosity (318.15 K, 100 kPa, x1 = 0.0003729): 0.638 ± 0.061 mPa·s | viscosity (318.15 K, 100 kPa, x1 = 0.0007203): 0.681 ± 0.06 mPa·s | viscosity (318.15 K, 100 kPa, x1 = 0.0007257): 0.681 ± 0.061 mPa·s | viscosity (318.15 K, 100 kPa, x1 = 0.00108): 0.725 ± 0.06 mPa·s | viscosity (318.15 K, 100 kPa, x1 = 0.0011): 0.725 ± 0.061 mPa·s | viscosity (318.15 K, 100.3 kPa, x1 = 0.0005439): 0.6041 ± 0.0084 mPa·s | viscosity (318.15 K, 100.3 kPa, x1 = 0.0009901): 0.6099 ± 0.0084 mPa·s | viscosity (318.15 K, 100.3 kPa, x1 = 0.003018): 0.6311 ± 0.0085 mPa·s | viscosity (318.15 K, 100.3 kPa, x1 = 0.00501): 0.6489 ± 0.0086 mPa·s | viscosity (318.15 K, 100.3 kPa, x1 = 0.006973): 0.6654 ± 0.0087 mPa·s | viscosity (318.15 K, 100.3 kPa, x1 = 0.009052): 0.69 ± 0.0088 mPa·s | viscosity (318.15 K, 100.3 kPa, x1 = 0.01199): 0.7155 ± 0.0089 mPa·s | viscosity (318.15 K, 100.3 kPa, x1 = 0.01499): 0.7441 ± 0.009 mPa·s | viscosity (318.15 K, 100.3 kPa, x1 = 0.017): 0.7642 ± 0.0091 mPa·s | electrical conductivity (318.15 K, 101 kPa, x2 = 0.3058): 2 ± 0.12 S/m | viscosity (318.15 K, 101 kPa, x2 = 0.6004): 6.4 ± 1 mPa·s | electrical conductivity (318.2 K, 101 kPa, frequency 6e-05 MHz, x2 = 0.2): 1.59 ± 0.016 S/m | electrical conductivity (318.2 K, 101 kPa, frequency 6e-05 MHz, x2 = 0.4): 2.53 ± 0.025 S/m | electrical conductivity (318.2 K, 101 kPa, frequency 6e-05 MHz, x2 = 0.6): 4.13 ± 0.041 S/m | electrical conductivity (318.2 K, 101 kPa, frequency 6e-05 MHz, x2 = 0.8): 6.55 ± 0.066 S/m | viscosity (323.15 K, 101 kPa, x2 = 0.06153): 29.13 ± 0.56 mPa·s | viscosity (323.15 K, 101 kPa, x2 = 0.209): 16.7 ± 2.3 mPa·s | viscosity (323.15 K, 101 kPa, x2 = 0.4001): 8.4 ± 1.3 mPa·s | electrical conductivity (323.15 K, 101 kPa, x2 = 0.8493): 7.98 ± 0.48 S/m | electrical conductivity (323.15 K, 101 kPa, x2 = 0.9496): 8.04 ± 0.48 S/m | electrical conductivity (323.15 K, 101 kPa, x2 = 0.9744): 6.74 ± 0.41 S/m | electrical conductivity (323.2 K, 101 kPa, frequency 6e-05 MHz, x2 = 0.2): 1.75 ± 0.018 S/m | electrical conductivity (323.2 K, 101 kPa, frequency 6e-05 MHz, x2 = 0.4): 2.78 ± 0.028 S/m | electrical conductivity (323.2 K, 101 kPa, frequency 6e-05 MHz, x2 = 0.6): 4.57 ± 0.046 S/m | electrical conductivity (323.2 K, 101 kPa, frequency 6e-05 MHz, x2 = 0.8): 7.22 ± 0.072 S/m | viscosity (333.15 K, 101 kPa, x2 = 0): 24.86 ± 0.4 mPa·s | viscosity (333.15 K, 101 kPa, x2 = 0.1135): 18.67 ± 0.4 mPa·s | electrical conductivity (333.2 K, 101 kPa, frequency 6e-05 MHz, x2 = 0.2): 2.1 ± 0.021 S/m | electrical conductivity (333.2 K, 101 kPa, frequency 6e-05 MHz, x2 = 0.4): 3.36 ± 0.034 S/m | electrical conductivity (333.2 K, 101 kPa, frequency 6e-05 MHz, x2 = 0.6): 5.31 ± 0.053 S/m | electrical conductivity (333.2 K, 101 kPa, frequency 6e-05 MHz, x2 = 0.8): 8.54 ± 0.085 S/m | viscosity (343.15 K, 101 kPa, x2 = 0.2984): 6.5 ± 1 mPa·s | viscosity (343.15 K, 101 kPa, x2 = 0.6004): 3.75 ± 0.66 mPa·s | viscosity (343.15 K, 101 kPa, x2 = 0.7): 2.73 ± 0.49 mPa·s | viscosity (343.15 K, 101 kPa, x2 = 0.8999): 1.07 ± 0.21 mPa·s | electrical conductivity (343.2 K, 101 kPa, frequency 6e-05 MHz, x2 = 0.2): 2.49 ± 0.025 S/m | electrical conductivity (343.2 K, 101 kPa, frequency 6e-05 MHz, x2 = 0.4): 3.87 ± 0.039 S/m | electrical conductivity (343.2 K, 101 kPa, frequency 6e-05 MHz, x2 = 0.6): 6.27 ± 0.063 S/m | electrical conductivity (343.2 K, 101 kPa, frequency 6e-05 MHz, x2 = 0.8): 9.89 ± 0.099 S/m | viscosity (353.15 K, 101 kPa, x2 = 0.1002): 8.6 ± 1.3 mPa·s | viscosity (353.15 K, 101 kPa, x2 = 0.3977): 5.98 ± 0.29 mPa·s | viscosity (353.15 K, 101 kPa, x2 = 0.6004): 3.19 ± 0.57 mPa·s | electrical conductivity (353.2 K, 101 kPa, frequency 6e-05 MHz, x2 = 0.2): 2.94 ± 0.029 S/m | electrical conductivity (353.2 K, 101 kPa, frequency 6e-05 MHz, x2 = 0.4): 4.56 ± 0.046 S/m | electrical conductivity (353.2 K, 101 kPa, frequency 6e-05 MHz, x2 = 0.6): 7.44 ± 0.074 S/m | electrical conductivity (353.2 K, 101 kPa, frequency 6e-05 MHz, x2 = 0.8): 11.5 ± 0.12 S/m | viscosity (363.15 K, 101 kPa, x2 = 0.03402): 11 ± 0.18 mPa·s | viscosity (363.15 K, 101 kPa, x2 = 0.06153): 10.4 ± 0.18 mPa·s | viscosity (363.15 K, 101 kPa, x2 = 0.2802): 6.65 ± 0.19 mPa·s | viscosity (373.15 K, 101 kPa, x2 = 0): 9.55 ± 0.15 mPa·s | viscosity (373.15 K, 101 kPa, x2 = 0.06153): 8.6 ± 0.15 mPa·s
